Results on twelve molecules are retold here after US20030225230A1, “Polymers for antifouling coatings and a process for the preparation thereof” (Jotun A/S, priority 1995, published 2003).

Data set [1] can be described thus: Determination of the hydrolysis rate of monomers in alkaline environment (pH 12). As to conditions: monomer in aqueous solution, starting pH 12, 25 °C. It is filed as physicochemical.

Broadly, the melting point is the temperature, or range, at which the solid turns liquid. Molecule `C=C(C)C(=O)OCC(=O)OC(C)(C)C` [t-Butoxycarbonylmethylmethacrylate] had a melting point of 65 °C. The “Hydrolysis Rate after 24 h” value in data set [1] is listed as 77.6%. Take `C=C(C)C(=O)Sc1nc(-c2ccccc2)ns1` [3-Phenyl-5-methacryloylthio-1,2,4-thiadiazole]: the melting point worked out at 110 °C. For the same molecule, the “Hydrolysis Rate after 24 h” value in data set [1] is 12.6%. `C=C(C)C(=O)OCC(=O)OC` [Methoxycarbonylmethylmethacrylate] showed a melting point of 60 °C. Besides, the “Hydrolysis Rate (4.5 h)” value in data set [1] is listed as 63.1%. `C=C(C)C(=O)Oc1c(Br)cc(Br)cc1Br` [2,4,6-Tribromophenylmethacrylate]: the melting point stood at 140 °C. In data set [1], the “Hydrolysis Rate after 24 h” value is on record as 13.3%. 4-Methacryloyloxymethylbenzoate: in data set [1], the “Hydrolysis Rate after 24 h” value amounted to 54.8%. `C=C(C)C(=O)Oc1ccc(OC)cc1` [4-Methoxyphenylmethacrylate]: the melting point turned out to be 40 °C. In addition, in data set [1], the “Hydrolysis Rate after 24 h” value was found to be 43.2%. On to 2-Methacryloyloxymethylbenzoate, for which the “Hydrolysis Rate (4.5 h)” value in data set [1] amounted to 64.4%. `C=C(C)C(=O)Sc1ccc(Cl)cc1` [4-Chlorothlophenylmethacrylate]: the “Hydrolysis Rate after 24 h” value in data set [1] amounted to 78.0%. As to `C=C(C)C(=O)OCC(=O)O` [Methacryloytoxy acetic acid], the “Hydrolysis Rate after 24 h” value in data set [1] was determined as 70.1%. Consider `C=C(C)C(=O)Oc1ccc(NC(C)=O)cc1` [4-Methacryloyloxy acetanilide], for which the “Hydrolysis Rate after 24 h” value in data set [1] worked out at 32.9%. As to Ethyloxythioglycolic acid methacrylate, in data set [1], the “Hydrolysis Rate after 24 h” value is recorded as 80.2%. On to `C=C(C)C(=O)Oc1ccc(Br)cc1C=O` [5-Bromo-2-methacryloyloxybenzaldehyde], for which the melting point was 52 °C. Besides, the “Hydrolysis Rate after 24 h” value in data set [1] turned out to be 35.6%.
